The structures appear in SMILES notation.

Common to all, as to assay type: cell-based
Test [1] deals with BTK (Homo sapiens (Human), UniProt Q06187). The experiment in a line: BTK degradation in OCI-LY10 cells (Total-BTK HTRF kit). The conditions noted are these: 24 (or 6) h incubation; for DC50 / BTK degradation in OCI-LY10 cells Dmax: OCI-LY10 cells; for DC50: DC50 = concentration when degradation rate reaches 50%, read-out: OCI-LY10 cell BTK degradation DC50; for Dmax: OCI-Ly10, OCI-LY10 cells; for Dmax / BTK degradation in OCI-LY10 cells Dmax: maximum degradation rate. As for the experimental part: The detection was carried out using the Total-BTK Kits (cisbio, 63ADK064PEH), and 4× Supplemented Lysis buffer was prepared using the Blocking reagent stock solution (100×) and Lysis buffer stock solution (4×). Premixed antibody solutions were prepared using the Detection buffer, Total-BTK d2 antibody, and Total-BTK Eu Cryptate antibody.
BTK, sequence (Q06187 whole entry): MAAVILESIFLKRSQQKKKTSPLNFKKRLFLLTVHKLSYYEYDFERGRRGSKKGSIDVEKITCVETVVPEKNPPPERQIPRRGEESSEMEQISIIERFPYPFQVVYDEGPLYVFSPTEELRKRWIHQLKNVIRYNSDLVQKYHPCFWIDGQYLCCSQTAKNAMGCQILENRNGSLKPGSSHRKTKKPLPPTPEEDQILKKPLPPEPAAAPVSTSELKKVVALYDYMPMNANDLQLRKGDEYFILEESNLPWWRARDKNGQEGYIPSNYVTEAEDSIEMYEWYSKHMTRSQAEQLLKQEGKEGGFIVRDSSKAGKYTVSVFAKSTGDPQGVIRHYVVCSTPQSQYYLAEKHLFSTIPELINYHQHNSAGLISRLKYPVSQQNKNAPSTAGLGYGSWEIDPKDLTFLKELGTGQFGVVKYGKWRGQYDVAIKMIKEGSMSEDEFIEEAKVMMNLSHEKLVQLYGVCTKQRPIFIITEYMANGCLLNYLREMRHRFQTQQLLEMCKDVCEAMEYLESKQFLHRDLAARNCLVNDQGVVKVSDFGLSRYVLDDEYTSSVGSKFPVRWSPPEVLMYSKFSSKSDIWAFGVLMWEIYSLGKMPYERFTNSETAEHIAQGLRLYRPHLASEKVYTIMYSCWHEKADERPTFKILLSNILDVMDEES
OCI-LY10 cells in a good growth state were collected and added to a centrifuge tube, adjusted to a cell density of 4.17×10^6 cells/mL, and seeded in a 384-well plate (12 μL/well). The cells were incubated overnight in a cell incubator. Compounds were added using a nanoliter pipettor such that the final concentrations of the compounds were 100 nM-0.098 nM; the addition was performed in duplicate, and meanwhile, a control was set. After another 24 (or 6) h of incubation in the cell incubator, the 4× Supplemented Lysis buffer was added at 4 μL/well to lyse the cells. After the cells were shaken for 40 min at room temperature, the Premixed antibody solutions were added at 4 μL/well, and the cells were left to stand overnight at room temperature. Fluorescence values of the cells were detected at 665 nm/620 nm using an Envision microplate reader, the four-parameter analysis was performed, the dose-response curves were fit, and DC50 (the concentration of the drug when the degradation rate reaches 50%) and Dmax (the maximum degradation rate) were calculated.
(In general: In TR-FRET formats the signal depends on donor and acceptor labels being close together.)

In test [2] the test system is OCI-LY10 cells. The experiment in a line: Inhibitory activity on OCI-LY10 cell proliferation (CCK-8). Particulars: Homo sapiens, OCI-Ly10, 72 h incubation. As for the experimental part:
(§1) OCI-LY10 cells in a good growth state were collected and added to a centrifuge tube, adjusted to a cell density of 1×10^5 cells/mL, and seeded in a 96-well plate (100 μL/well). The cells were incubated overnight in a cell incubator. Compounds were added using a nanoliter pipettor such that the final concentrations of the compounds were 5000 nM-0.31 nM; the addition was performed in duplicate, and meanwhile, a control was set. After another 72 h of incubation in the cell incubator, 10 μL of CCK-8 (CK04, PP799) was added. After 2.5 h of incubation in the cell incubator, absorbance values were detected at 450 nm using an Envision microplate reader, the four-parameter analysis was performed, the dose-response curves were fit, and IC50 was calculated.

The subject of test [3] is TMD8-BTK(C481S) cells. The experiment in a line: Inhibitory activity on TMD8-BTK(C481S) cell proliferation (CCK-8). Particulars: 72 h incubation. As for the experimental part: as §1, with “TMD8-BTK(C481S)” for “OCI-LY10”, “8×10^4” for “1×10^5”, “4” for “2.5”

A word on the DC50: it is the concentration giving 50% degradation. What is called Dmax is the greatest extent of degradation seen. The IC50 is the concentration that inhibits the measured activity by half. Read a high IC50 as a need for much substance. Turning to `CN1CCN([C@@H]2CCCN(c3cnc(C(N)=O)c(Nc4ccc(C5CCN(C[C@H]6CCN(c7ccc8c(C9CCC(=O)NC9=O)noc8c7)C6)CC5)cc4)n3)C2)C1=O` (stereo partly drawn) [Compound 1], in test [1], the DC50 was under 0.098 nM and the Dmax was 99%. Moreover, the IC50 in test [2] is under 0.31 nM. For the same molecule, in test [3] (72 h), it took 35 nM to reach half-maximal inhibition (IC50).

In the case of `CN1CCN([C@@H]2CCCN(c3cnc(C(N)=O)c(Nc4ccc(C5CCN(C[C@H]6CCN(c7cccc8c(C9CCC(=O)NC9=O)noc78)C6)CC5)cc4)n3)C2)C1=O` (stereo partly drawn) [Compound 2], in test [1], the DC50 is under 0.098 nM and the Dmax was found to be 99%. Further, 18 nM corresponded to half-maximal inhibition in test [3] (72 h) (IC50).

Consider `CN1CCN([C@@H]2CCCN(c3cnc(C(N)=O)c(Nc4ccc(C5CCN(C[C@H]6CCN(c7cc8onc(C9CCC(=O)NC9=O)c8cc7F)C6)CC5)cc4)n3)C2)C1=O` (stereo partly drawn) [Compound 3], for which, in test [1], the DC50 was under 0.098 nM and the Dmax stood at 99%. In test [2], the IC50 was under 0.31 nM. Molecule `CN1CCN([C@@H]2CCCN(c3cnc(C(N)=O)c(Nc4ccc(C5CCN(C[C@H]6CCN(c7ccc8onc(C9CCC(=O)NC9=O)c8c7)C6)CC5)cc4)n3)C2)C1=O` (stereo partly drawn) [Compound 4] returned an IC50 in test [3] (72 h) of 27 nM. In the case of `CN1CCN([C@@H]2CCCN(c3cnc(C(N)=O)c(Nc4ccc(C5CCN(C[C@H]6CCC(c7ccc8c(C9CCC(=O)NC9=O)noc8c7)C6)CC5)cc4)n3)C2)C1=O` (stereo partly drawn) [Compound 6], in test [1], the DC50 was under 0.098 nM and the Dmax came to 99%. In test [2], this molecule yielded an IC50 of under 0.31 nM. The same molecule displayed an IC50 in test [3] (72 h) of 27 nM. In the case of `CN1CCN([C@@H]2CCCN(c3cnc(C(N)=O)c(Nc4ccc(C5CCC6(CC5)CN(C5CN(c7ccc8c(C9CCC(=O)NC9=O)noc8c7)C5)C6)cc4)n3)C2)C1=O` (stereo partly drawn) [Compound 12], in test [1], the DC50 came to 0.098 nM and the “BTK degradation in OCI-LY10 cells Dmax” value worked out at 99%.

`NC(=O)c1ncc(N2CCCCC2)nc1Nc1ccc(N2CCC(N3Cc4ccc5c(C6CCC(=O)NC6=O)noc5c4C3)CC2)cc1` (stereo not drawn) [Compound 31] yielded a Dmax in test [1] of over 90%.

`CN1CCN([C@@H]2CCCN(c3cnc(C(N)=O)c(Nc4ccc5c(c4)CN(CC4Cc6ccc7c(C8CCC(=O)NC8=O)noc7c6C4)C5)n3)C2)C1=O` (stereo partly drawn) [Compound 45]: the “BTK degradation in OCI-LY10 cells Dmax” value in test [1] is over 90%. In test [1], `CN1CCN([C@@H]2CCCN(c3cnc(C(N)=O)c(Nc4ccc(C5C[C@@H]6CN(CC7Cc8ccc9c(C%10CCC(=O)NC%10=O)noc9c8C7)C[C@@H]6C5)cc4)n3)C2)C1=O` (stereo partly drawn) [Compound 48] displayed a maximal degradation (Dmax) of over 90%. The same molecule displayed an IC50 in test [3] (72 h) of 5.7 nM.

Turning to `CN1CCN([C@@H]2CCCN(c3cnc(C(N)=O)c(Nc4ccc(C5C[C@@H]6CN(CC7Cc8ccc9c(C%10CCC(=O)NC%10=O)noc9c8C7)C[C@@H]6C5)cc4)n3)C2)C1=O` (stereo partly drawn) [Compound 49], the “BTK degradation in OCI-LY10 cells Dmax” value in test [1] is reported as over 90%. In test [3], this molecule displayed an IC50 of 6.8 nM. As for `CN1CCN([C@@H]2CCCN(c3cnc(C(N)=O)c(Nc4ccc(C5CCC6(CC5)CCN(CC5Cc7ccc8c(C9CCC(=O)NC9=O)noc8c7C5)CC6)cc4)n3)C2)C1=O` (stereo partly drawn) [Compound 51], the “BTK degradation in OCI-LY10 cells Dmax” value in test [1] is over 90%. For the same molecule, in test [3], the IC50 was found to be 4.7 nM. As for `CN1CCN([C@@H]2CCCN(c3cnc(C(N)=O)c(Nc4ccc(C5CCC6(CC5)CN(CC5Cc7ccc8c(C9CCC(=O)NC9=O)noc8c7C5)C6)cc4)n3)C2)C1=O` (stereo partly drawn) [Compound 52], the “BTK degradation in OCI-LY10 cells Dmax” value in test [1] was over 90%. For the same molecule, 3.7 nM corresponded to half-maximal inhibition in test [3] (72 h) (IC50).

With `CN1CCN(C2CCCN(c3cnc(C(N)=O)c(Nc4ccc(C5CCC6(CC5)CN(C5Cc7ccc8c(C9CCC(=O)NC9=O)noc8c7C5)C6)cc4)n3)C2)C1=O` (stereo not drawn) [Compound 54], the Dmax in test [1] is over 90%. Moreover, in test [3] (72 h), half-maximal inhibition (IC50) required 9.7 nM. As for `CN1CCN(C2CCCN(c3cnc(C(N)=O)c(Nc4ccc(C5CCC6(CC5)CN(C5Cc7ccc8c(C9CCC(=O)NC9=O)noc8c7C5)C6)cc4)n3)C2)C1=O` (stereo not drawn) [Compound 55], the “BTK degradation in OCI-LY10 cells Dmax” value in test [1] is recorded as over 90%. This molecule registered an IC50 in test [3] of 6.1 nM. Take `CN1CCN([C@@H]2CCCN(c3cnc(C(N)=O)c(Nc4ccc(C5CCC6(CC5)CC(N5Cc7ccc8c(C9CCC(=O)NC9=O)noc8c7C5)C6)cc4)n3)C2)C1=O` (stereo partly drawn) [Compound 56]: the Dmax in test [1] is over 90%. Besides, half-maximal inhibition in test [3] (72 h) (IC50) required 33 nM. Take `CN1CCN([C@@H]2CCCN(c3cnc(C(N)=O)c(Nc4ccc(C5CCC6(CC5)CC(N5CCc7ccc8c(C9CCC(=O)NC9=O)noc8c7C5)C6)cc4)n3)C2)C1=O` (stereo partly drawn) [Compound 57]: the Dmax in test [1] is over 90%. On to `CN1CCN([C@@H]2CCCN(c3cnc(C(N)=O)c(Nc4ccc(C5CCC6(CC5)CC(N5CCc7c(ccc8c(C9CCC(=O)NC9=O)noc78)C5)C6)cc4)n3)C2)C1=O` (stereo partly drawn) [Compound 58], for which the Dmax in test [1] is over 90%. Besides, the IC50 in test [3] (72 h) worked out at 21 nM. On to `NC(=O)c1ncc(N2CCCCC2)nc1Nc1ccc(N2CCC(N3CCc4ccc5c(C6CCC(=O)NC6=O)noc5c4C3)CC2)cc1` (stereo not drawn) [Compound 60], for which 9.4 nM corresponded to half-maximal inhibition in test [3] (72 h) (IC50). On to `NC(=O)c1ncc(N2CCCCC2)nc1Nc1ccc(N2CCC(N3CCc4c(ccc5c(C6CCC(=O)NC6=O)noc45)C3)CC2)cc1` (stereo not drawn) [Compound 61], for which, in test [3] (72 h), the IC50 is 13 nM. Consider `NC(=O)c1ncc(N2CCCCC2)nc1Nc1ccc(C2CCC(N3CCc4ccc5c(C6CCC(=O)NC6=O)noc5c4CC3)CC2)cc1` (stereo not drawn) [Compound 67], for which the IC50 in test [3] is 32 nM. In turn, `NC(=O)c1ncc(N2CCCCC2)nc1Nc1ccc(C2CCN(C3Cc4ccc5c(C6CCC(=O)NC6=O)noc5c4C3)CC2)cc1` (stereo not drawn) [Compound 70] showed an IC50 in test [3] of 15 nM. As for `NC(=O)c1ncc(N2CCCCC2)nc1Nc1ccc(C2CCC(CN3CCc4ccc5c(C6CCC(=O)NC6=O)noc5c4CC3)CC2)cc1` (stereo not drawn) [Compound 74], the IC50 in test [3] came to 23 nM. `NC(=O)c1ncc(N2CCCCC2)nc1Nc1ccc(C2CCN(CC3Cc4ccc5c(C6CCC(=O)NC6=O)noc5c4C3)CC2)cc1` (stereo not drawn) [Compound 75] returned an IC50 in test [3] (72 h) of 9.8 nM.

`NC(=O)c1ncc(N2CCCCC2)nc1Nc1ccc(C2CCN(CC3Cc4ccc5c(C6CCC(=O)NC6=O)noc5c4C3)CC2)cc1` (stereo not drawn) [Compound 76] had a Dmax in test [1] of over 90%. The IC50 in test [3] came out at 11 nM. Take `CN1CCN([C@@H]2CCCN(c3cnc(C(N)=O)c(Nc4ccc5c(c4)CCC4(CCN(CC6Cc7ccc8c(C9CCC(=O)NC9=O)noc8c7C6)CC4)O5)n3)C2)C1=O` (stereo partly drawn) [Compound 78]: the “BTK degradation in OCI-LY10 cells Dmax” value in test [1] is recorded as over 90%. In test [1], `CN1CCN([C@@H]2CCCN(c3cnc(C(N)=O)c(Nc4ccc5c(c4)OC[C@H]4CN(CC6Cc7ccc8c(C9CCC(=O)NC9=O)noc8c7C6)CCN54)n3)C2)C1=O` (stereo partly drawn) [Compound 86] showed a Dmax of over 90%. In the case of `CN1CCN([C@@H]2CCCN(c3cnc(C(N)=O)c(Nc4ccc(C5CCN(C6Cc7ccc8c(C9CCC(=O)NC9=O)noc8c7C6)CC5)cc4)n3)C2)C1=O` (stereo partly drawn) [Compound 88], the “BTK degradation in OCI-LY10 cells Dmax” value in test [1] was over 90%. This molecule also gave an IC50 in test [3] of 29 nM. On to `CN1CCN([C@@H]2CCCN(c3cnc(C(N)=O)c(Nc4ccc(C5CCN(C[C@H]6C[C@H](n7ccc8c9c(C%10CCC(=O)NC%10=O)noc9ccc87)C6)CC5)cc4)n3)C2)C1=O` (stereo partly drawn) [Compound 98-1], for which the “BTK degradation in OCI-LY10 cells Dmax” value in test [1] is given as over 90%. Take `NC(=O)c1ncc(N2CCCCC2)nc1Nc1ccc(C2CCN(C[C@H]3C[C@@H](n4ccc5c6c(C7CCC(=O)NC7=O)noc6ccc54)C3)CC2)cc1` (stereo partly drawn) [Compound 99-1]: in test [1], the “BTK degradation in OCI-LY10 cells Dmax” value is listed as over 90%. In the case of `CN1CCN([C@@H]2CCCN(c3cnc(C(N)=O)c(Nc4ccc(C5CCN([C@H]6CC[C@@H](n7ccc8c9c(C%10CCC(=O)NC%10=O)noc9ccc87)CC6)CC5)cc4)n3)C2)C1=O` (stereo partly drawn) [Compound 102-1], the “BTK degradation in OCI-LY10 cells Dmax” value in test [1] is on record as over 90%. Take `CN1CCN([C@@H]2CCCN(c3cnc(C(N)=O)c(Nc4ccc(C5CCN([C@H]6CC[C@H](n7ccc8c9c(C%10CCC(=O)NC%10=O)noc9ccc87)CC6)CC5)cc4)n3)C2)C1=O` (stereo partly drawn) [Compound 102-2]: in test [1], the DC50 was under 0.098 nM and the “BTK degradation in OCI-LY10 cells Dmax” value came out at 97.11%. For `NC(=O)c1ncc(N2CCCCC2)nc1Nc1ccc(C2CCN([C@H]3CC[C@H](n4ccc5c6c(C7CCC(=O)NC7=O)noc6ccc54)CC3)CC2)cc1` (stereo partly drawn) [Compound 103-2], in test [1], the “BTK degradation in OCI-LY10 cells Dmax” value is over 90%.
